Read-outs that look alike come from different tables or passages of the source.
Tests used:
[1] = tested on: TK-10; experiment: NCI-60 growth inhibition: TK-10 (Renal Cancer); format: cell-based, human; details: Homo sapiens
[2] = tested on: SNB-75; experiment: NCI-60 growth inhibition: SNB-75 (CNS Cancer); format: cell-based, human; details: Homo sapiens
[3] = tested on: IGROV1; experiment: NCI-60 growth inhibition: IGROV1 (Ovarian Cancer); format: cell-based, human; details: Homo sapiens, IGROV-1
[4] = tested on: K-562; experiment: NCI-60 growth inhibition: K-562 (Leukemia); format: cell-based, human; details: Homo sapiens, K562
[5] = tested on: MCF7; experiment: NCI-60 growth inhibition: MCF7 (Breast Cancer); format: cell-based, human; details: Homo sapiens
[6] = tested on: CCRF-CEM; experiment: NCI-60 growth inhibition: CCRF-CEM (Leukemia); format: cell-based, human; details: Homo sapiens
[7] = tested on: NCI-H23; experiment: NCI-60 growth inhibition: NCI-H23 (Non-Small-Cell Lung Cancer); format: cell-based, human; details: Homo sapiens
[8] = tested on: UACC-62; experiment: NCI-60 growth inhibition: UACC-62 (Melanoma); format: cell-based, human; details: Homo sapiens
[9] = tested on: DU-145; experiment: NCI-60 growth inhibition: DU-145 (Prostate Cancer); format: cell-based, human; details: Homo sapiens
[10] = tested on: M14; experiment: NCI-60 growth inhibition: M14 (Melanoma); format: cell-based, human; details: Homo sapiens
[11] = tested on: SK-MEL-2; experiment: NCI-60 growth inhibition: SK-MEL-2 (Melanoma); format: cell-based, human; details: Homo sapiens
[12] = tested on: MDA-MB-468; experiment: NCI-60 growth inhibition: MDA-MB-468 (Breast Cancer); format: cell-based, human; details: Homo sapiens
[13] = tested on: BT-549; experiment: NCI-60 growth inhibition: BT-549 (Breast Cancer); format: cell-based, human; details: Homo sapiens
[14] = tested on: NCI-H460; experiment: NCI-60 growth inhibition: NCI-H460 (Non-Small-Cell Lung Cancer); format: cell-based, human; details: Homo sapiens
[15] = tested on: HCT-116; experiment: NCI-60 growth inhibition: HCT-116 (Colon Cancer); details: Homo sapiens, HCT-116
[16] = tested on: OVCAR-5; experiment: NCI-60 growth inhibition: OVCAR-5 (Ovarian Cancer); format: cell-based, human; details: Homo sapiens
[17] = tested on: MV4-11 cell line (myelomonocytic leukemia); details: MV4-11 cells; for LD50, 7AAD (μM) 24 h / LD50, Alamar blue (μM) 24 h / LD50, YOPRO (μM) 24 h: MMB-TDZD analogs (Table 2); for LD50: values in text
[18] = tested on: HT29; experiment: NCI-60 growth inhibition: HT29 (Colon Cancer); format: cell-based, human; details: Homo sapiens, HT-29
[19] = tested on: CAKI-1; experiment: NCI-60 growth inhibition: CAKI-1 (Renal Cancer); format: cell-based, human; details: Homo sapiens
[20] = tested on: OVCAR-4; experiment: NCI-60 growth inhibition: OVCAR-4 (Ovarian Cancer); format: cell-based, human; details: Homo sapiens
[21] = tested on: MDA-MB-231/ATCC; experiment: NCI-60 growth inhibition: MDA-MB-231/ATCC (Breast Cancer); format: cell-based, human; details: Homo sapiens
[22] = tested on: EKVX; experiment: NCI-60 growth inhibition: EKVX (Non-Small-Cell Lung Cancer); format: cell-based, human; details: Homo sapiens
[23] = tested on: MDA-MB-435; experiment: NCI-60 growth inhibition: MDA-MB-435 (Melanoma); format: cell-based, human; details: Homo sapiens
[24] = tested on: LOX IMVI; experiment: NCI-60 growth inhibition: LOX IMVI (Melanoma); format: cell-based, human; details: Homo sapiens
[25] = tested on: ACHN; experiment: NCI-60 growth inhibition: ACHN (Renal Cancer); format: cell-based, human; details: Homo sapiens
[26] = tested on: OVCAR-8; experiment: NCI-60 growth inhibition: OVCAR-8 (Ovarian Cancer); format: cell-based, human; details: Homo sapiens
[27] = tested on: 786-0; experiment: NCI-60 growth inhibition: 786-0 (Renal Cancer); format: cell-based, human; details: Homo sapiens
[28] = tested on: HCT-15; experiment: NCI-60 growth inhibition: HCT-15 (Colon Cancer); format: cell-based, human; details: Homo sapiens
[29] = tested on: SW-620; experiment: NCI-60 growth inhibition: SW-620 (Colon Cancer); format: cell-based, human; details: Homo sapiens
[30] = tested on: OVCAR-3; experiment: NCI-60 growth inhibition: OVCAR-3 (Ovarian Cancer); format: cell-based, human; details: Homo sapiens
[31] = tested on: A498; experiment: NCI-60 growth inhibition: A498 (Renal Cancer); format: cell-based, human; details: Homo sapiens
[32] = tested on: RPMI-8226; experiment: NCI-60 growth inhibition: RPMI-8226 (Leukemia); format: cell-based, human; details: Homo sapiens
[33] = tested on: NCI-H522; experiment: NCI-60 growth inhibition: NCI-H522 (Non-Small-Cell Lung Cancer); details: Homo sapiens, NCI-H522
[34] = tested on: MALME-3M; experiment: NCI-60 growth inhibition: MALME-3M (Melanoma); format: cell-based, human; details: Homo sapiens
[35] = tested on: SF-268; experiment: NCI-60 growth inhibition: SF-268 (CNS Cancer); format: cell-based, human; details: Homo sapiens
[36] = tested on: UACC-257; experiment: NCI-60 growth inhibition: UACC-257 (Melanoma); format: cell-based, human; details: Homo sapiens
[37] = tested on: PC-3; experiment: NCI-60 growth inhibition: PC-3 (Prostate Cancer); format: cell-based, human; details: Homo sapiens
[38] = tested on: HOP-92; experiment: NCI-60 growth inhibition: HOP-92 (Non-Small-Cell Lung Cancer); format: cell-based, human; details: Homo sapiens
[39] = tested on: SN12C; experiment: NCI-60 growth inhibition: SN12C (Renal Cancer); format: cell-based, human; details: Homo sapiens
[40] = tested on: MOLT-4; experiment: NCI-60 growth inhibition: MOLT-4 (Leukemia); format: cell-based, human; details: Homo sapiens
[41] = tested on: RXF 393; experiment: NCI-60 growth inhibition: RXF 393 (Renal Cancer); format: cell-based, human; details: Homo sapiens
[42] = tested on: SNB-19; experiment: NCI-60 growth inhibition: SNB-19 (CNS Cancer); format: cell-based, human; details: Homo sapiens
[43] = tested on: UO-31; experiment: NCI-60 growth inhibition: UO-31 (Renal Cancer); format: cell-based, human; details: Homo sapiens
[44] = tested on: COLO 205; experiment: NCI-60 growth inhibition: COLO 205 (Colon Cancer); format: cell-based, human; details: Homo sapiens
[45] = tested on: SF-539; experiment: NCI-60 growth inhibition: SF-539 (CNS Cancer); format: cell-based, human; details: Homo sapiens
[46] = tested on: SK-MEL-28; experiment: NCI-60 growth inhibition: SK-MEL-28 (Melanoma); format: cell-based, human; details: Homo sapiens
[47] = tested on: T-47D; experiment: NCI-60 growth inhibition: T-47D (Breast Cancer); format: cell-based, human; details: Homo sapiens, T47D
[48] = tested on: SK-MEL-5; experiment: NCI-60 growth inhibition: SK-MEL-5 (Melanoma); format: cell-based, human; details: Homo sapiens
[49] = tested on: HS 578T; experiment: NCI-60 growth inhibition: HS 578T (Breast Cancer); format: cell-based, human; details: Homo sapiens
[50] = tested on: SR; experiment: NCI-60 growth inhibition: SR (Leukemia); format: cell-based, human; details: Homo sapiens
[51] = tested on: human leukemia cell lines; experiment: NCI-60 growth inhibition, leukemia cell lines
[52] = tested on: HL-60(TB); experiment: NCI-60 growth inhibition: HL-60(TB) (Leukemia); format: cell-based, human; details: Homo sapiens, HL-60
[53] = tested on: U251; experiment: NCI-60 growth inhibition: U251 (CNS Cancer); format: cell-based, human; details: Homo sapiens, U-251

C=C1C(=O)O[C@H]2[C@H]1CC/C(COC(=O)NCc1ccc(Cn3c(=O)sn(-c4ccccc4)c3=O)cc1)=C\CC[C@@]1(C)O[C@@H]21 [BSK-197]
GI50 [1]: 2210 nM | GI50 [2]: 2370 nM | GI50 [3]: 2090 nM | GI50 [4]: 1800 nM | GI50 [5]: 1590 nM | GI50 [6]: 830 nM | GI50 [7]: 3550 nM | GI50 [8]: 2040 nM | GI50 [9]: 1710 nM | GI50 [10]: 1800 nM | GI50 [11]: 2390 nM | GI50 ([12]; MDA-MB-468): 1170 nM | GI50 [13]: 2140 nM | GI50 [14]: 3670 nM | GI50 [15]: 1520 nM | GI50 [16]: 2510 nM | LD50, 7AAD (μM) 24 h [17]: 1.26 µM | LD50, Alamar blue (μM) 24 h [17]: 2.02 µM | LD50, YOPRO (μM) 24 h [17]: 1.17 µM | LD50 [17]: 980 nM | GI50 [18]: 2150 nM | GI50 [19]: 2490 nM | GI50 [20]: 2740 nM | GI50 [21]: 1710 nM | GI50 [22]: 1850 nM | GI50 [23]: 2070 nM | GI50 [24]: 1620 nM | GI50 [25]: 1640 nM | GI50 [26]: 2830 nM | GI50 [27]: 1810 nM | GI50 [28]: 1940 nM | GI50 [29]: 1910 nM | GI50 [30]: 1680 nM | GI50 [31]: 3910 nM | GI50 [32]: 2030 nM | GI50 [33]: 1740 nM | GI50 [34]: 2090 nM | GI50 [35]: 2210 nM | GI50 [36]: 1860 nM | GI50 [37]: 2360 nM | GI50 [38]: 1820 nM | GI50 [39]: 2130 nM | GI50 [40]: 2200 nM | GI50 [41]: 1750 nM | GI50 [42]: 4260 nM | GI50 [43]: 1680 nM | GI50 [44]: 1770 nM | GI50 [45]: 1570 nM | GI50 [46]: 1700 nM | GI50 [47]: 1980 nM | GI50 [48]: 3240 nM | GI50 [49]: 4140 nM

C=C1C(=O)O[C@H]2[C@H]1CC/C(COC(=O)NCc1ccc(Cn3c(=O)sn(CCCI)c3=O)cc1)=C\CC[C@@]1(C)O[C@@H]21 [BSK-259]
GI50 [1]: 1710 nM | GI50 [3]: 1750 nM | GI50 [4]: 340 nM | GI50 [5]: 1410 nM | GI50 [6]: 310 nM | GI50 [7]: 2110 nM | GI50 [8]: 1410 nM | GI50 [9]: 1730 nM | GI50 [10]: 1740 nM | GI50 [11]: 2420 nM | GI50 ([12]; MDA-MB-468 (Breast Cancer), read-out: GI50): 1540 nM | GI50 [13]: 1380 nM | GI50 [14]: 3200 nM | GI50 [15]: 1050 nM | GI50 [16]: 1850 nM | fold more cytotoxic than PTL [17]: 273 fold | fold more cytotoxic than TDZD-8 [17]: 329 fold | LD50, 7AAD (μM) 24 h [17]: 0.01 µM | LD50, Alamar blue (μM) 24 h [17]: 0.30 µM | LD50, YOPRO (μM) 24 h [17]: 0.01 µM | LD50 [17]: 10 nM | GI50 [18]: 1740 nM | GI50 [50]: 280 nM | GI50 [19]: 1700 nM | GI50 [20]: 1460 nM | GI50 [21]: 1750 nM | GI50 [22]: 2090 nM | GI50 [23]: 1680 nM | GI50 [24]: 1400 nM | GI50 [25]: 1700 nM | GI50 [26]: 3040 nM | GI50 [27]: 1680 nM | GI50 [28]: 1890 nM | GI50 [29]: 1400 nM | GI50 [30]: 1190 nM | GI50 [31]: 4850 nM | GI50 [32]: 900 nM | GI50 [33]: 1070 nM | GI50 ([51]; Homo sapiens): 280 to 900 nM | potency against leukemia cell lines (GI50 <1.0) ([51]; NCI panel): high potency against all 6 leukemia cell lines | GI50 [34]: 1390 nM | GI50 [35]: 2540 nM | GI50 [36]: 1790 nM | GI50 [37]: 1940 nM | GI50 [38]: 1220 nM | GI50 [39]: 1570 nM | GI50 [40]: 290 nM | GI50 [41]: 1520 nM | GI50 [52]: 300 nM | GI50 [42]: 3120 nM | GI50 [43]: 1520 nM | GI50 [44]: 1950 nM | GI50 [45]: 1710 nM | GI50 [46]: 1920 nM | GI50 [53]: 1750 nM | GI50 [47]: 1790 nM | GI50 [48]: 1910 nM | GI50 [49]: 3170 nM

From patent publication US20230125667A1, “NOVEL TDZD ANALOGS AS AGENTS THAT DELAY, PREVENT, OR REVERSE AGE-ASSOCIATED DISEASES AND AS ANTI-CANCER AND ANTILEUKEMIC AGENTS” (United States Government as represented by the Department …, priority 2020, published 2023)
